The values below come from patent US9708272B2, “Inhibitors of α-amino-β-carboxymuconic acid semialdehyde decarboxylase” (TES Pharma S.r.l., priority 2014, dated 2017).

Series [1] relates to human primary hepatocytes. In words: NAD+ content in human primary hepatocytes (LCMS/MS). Type of series: cell-based. Particulars: 0.5 μM and 5 μM, FIG. 1. Here is the method: Primary hepatocytes are treated with different concentrations of a compound of Formula (I), Formula (Ia), Formula (Ib), Formula (II), or Formula (III), or a pharmaceutically acceptable salt thereof, or MEHP (control) after seeding. The compound is replaced every 24 hours, and then cells are directly harvested and lysed to detect NAD^+ content through LC MS/MS (liquid chromatography mass spectrometry/mass spectroscopy).
The NAD^+ concentration or content was determined in human primary hepatocytes treated with Compound 4. Vehicle (NT) was used as a control.
At least three experiments were run treating primary hepatocytes with different concentrations of Compound 4 (0.5 μM and 5 μM) after 48 hrs from seeding. Compound 4 was replaced every 24 hrs, and then cells were directly harvested and lysed with ACN/H2O (ratio 5:1). LCMS/MS was used to detect and measure NAD^+ concentration/content. […] (FIG. 1)
The NAD^+ concentration or content was determined in human primary hepatocytes treated with Compound 1 and MEHP, a known ACMSD inhibitor. MEHP was used as a control.
At least three experiments were run treating primary hepatocytes with different concentrations of Compound 1 (0.5 μM, 5 μM, and 50 μM) after 48 hrs from seeding. Compound 1 was replaced every 24 hrs, and then cells were directly harvested and lysed with ACN/H2O (ratio 5:1). […]

Another series concerns HePG2 cells. In words: Cytotoxicity (LDH release, ATP level) in HePG2 cells. Type of series: cell-based. Particulars: 10 nM to 300 μM; 4 hrs; DMSO 1%. As to the method: (§1) HePG2 and AML-12 cells are seeded and a dose-response of the compound is performed at various concentrations. Cells are stimulated and the supernatant is used to perform LDH release as a measure of necrosis while the cells are lysed to detect ATP levels for determining cell viability.
(§2) Cytotoxicity: 20000 HePG2 and AML-12 cells were seeded in 96 well plate (Viewplate PerkinElmer). Dose-response of the compound in Table 2 was performed using HP D300 digital dispenser, ranging from 10 nM to 300 μM with constant DMSO 1% in medium. Cells were stimulated for 4 hrs at 37° C.; the supernatant was used to perform LDH release (Cytotox-one, Promega) as a measure of necrosis while the cells were lysed to detect ATP level for determining cell viability (Celltiter-glo, Promega) according to manufacturer's instructions.
In general terms: LDH leaks from cells whose membrane has failed.

In the next series the test system is AML-12 cells. In words: Cytotoxicity (LDH release, ATP level) in AML-12 cells. Type of series: cell-based, mouse. Particulars: 10 nM to 300 μM; 4 hrs; DMSO 1%. As to the method: as §1, §2
The next series deals with hERG potassium channel (Homo sapiens (Human), UniProt Q12809). In words: Predictor hERG assay, fluorescence polarization tracer displacement. Particulars: hERG channel affinity binding; DMSO 1%. From the text: The Predictor hERG assay kit is stably transfected with hERG potassium channel and a high-affinity red fluorescent hERG channel ligand and is used for the determination of hERG channel affinity binding of compounds of Formula (I), Formula (Ia), Formula (Ib), Formula (II), or Formula (III), or a pharmaceutically acceptable salt thereof. Compounds that bind to the hERG channel protein (competitors) are identified by their ability to displace the tracer which results in a lower fluorescence polarization.
hERG potassium channel, sequence (Q12809 whole entry): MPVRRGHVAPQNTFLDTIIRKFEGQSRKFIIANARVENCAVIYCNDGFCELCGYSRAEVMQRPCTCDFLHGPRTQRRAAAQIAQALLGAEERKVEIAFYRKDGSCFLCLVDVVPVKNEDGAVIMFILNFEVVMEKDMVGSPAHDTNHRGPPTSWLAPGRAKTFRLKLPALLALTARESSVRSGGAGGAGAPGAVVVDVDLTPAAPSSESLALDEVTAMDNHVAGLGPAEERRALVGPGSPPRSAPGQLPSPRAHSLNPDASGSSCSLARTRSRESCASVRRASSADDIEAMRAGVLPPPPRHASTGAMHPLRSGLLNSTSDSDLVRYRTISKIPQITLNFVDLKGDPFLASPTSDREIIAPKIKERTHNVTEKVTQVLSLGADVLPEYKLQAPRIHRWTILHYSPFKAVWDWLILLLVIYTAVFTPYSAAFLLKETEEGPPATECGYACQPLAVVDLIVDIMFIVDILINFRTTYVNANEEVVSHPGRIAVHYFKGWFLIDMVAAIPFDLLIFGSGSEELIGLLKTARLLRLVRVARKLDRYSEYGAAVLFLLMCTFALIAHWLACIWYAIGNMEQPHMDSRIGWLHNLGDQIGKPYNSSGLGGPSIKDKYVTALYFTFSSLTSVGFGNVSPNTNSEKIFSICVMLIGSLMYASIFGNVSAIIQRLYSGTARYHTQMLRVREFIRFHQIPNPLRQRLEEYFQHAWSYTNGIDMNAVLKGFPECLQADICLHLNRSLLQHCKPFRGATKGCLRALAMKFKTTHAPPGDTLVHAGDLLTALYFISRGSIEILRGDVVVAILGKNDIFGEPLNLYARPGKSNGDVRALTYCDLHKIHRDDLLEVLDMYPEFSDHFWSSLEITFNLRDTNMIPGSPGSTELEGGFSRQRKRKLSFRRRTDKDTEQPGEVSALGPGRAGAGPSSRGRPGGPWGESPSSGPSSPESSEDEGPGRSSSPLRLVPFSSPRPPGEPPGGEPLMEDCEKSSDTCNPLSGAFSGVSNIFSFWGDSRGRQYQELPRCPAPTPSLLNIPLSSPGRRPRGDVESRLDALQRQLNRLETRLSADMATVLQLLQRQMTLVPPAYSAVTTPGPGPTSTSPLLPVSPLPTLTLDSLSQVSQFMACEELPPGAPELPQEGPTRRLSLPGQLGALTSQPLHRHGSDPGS
The Predictor hERG assay kit (Invitrogen), containing membrane preparations from Chinese hamster ovary cells stably transfected with hERG potassium channel and a high-affinity red fluorescent hERG channel ligand (tracer), was used for the determination of hERG channel affinity binding of the test compounds in Table 2. Compounds that bind to the hERG channel protein (competitors) were identified by their ability to displace the tracer, resulting in a lower fluorescence polarization. The final concentration of DMSO in each well was maintained at 1%. The assays were performed according to the manufacturer's protocol (Invitrogen).

In series [2] the test system is SOD2. Briefly: Modulation of SOD2 activity in AML-12 cells. It counts as cell-based, mouse. Particulars: 24 hours. Here is the method: Primary hepatocytes or AML-12 cells are lysed and total protein concentration is determined using the Bradford assay. SOD2 activity is determined at indicated times after treatment with a compound of Formula (I), Formula (Ia), Formula (Ib), Formula (II), or Formula (III), or a pharmaceutically acceptable salt thereof, using a SOD Assay Kit. Absorbance is determined and results are expressed in U/ml/mg of protein according to the standard curve and measured protein concentration. […]
Primary hepatocytes or AML-12 cells were then lysed in a 20 mM HEPES buffer (Gibco), pH 7.2, containing 1 mM EGTA (Sigma), 210 mM mannitol (Sigma), and 70 mM sucrose (AMRESCO). Total protein concentration was determined using the Bradford assay (BioRad). SOD-2 activity was determined at indicated times after ACMSD inhibitor treatment by the SOD Assay Kit (Cayman Chemical) according to the manufacturer's instructions. […] Absorbance was determined with a Victor X4 multi-label plate reader (Perkin-Elmer) at 450 nm. Results are expressed in U/ml/mg of protein according to the standard curve and measured protein concentration.

Series [3] has as its system SOD2. In words: Modulation of SOD2 activity in murine primary hepatocytes. It counts as cell-based, mouse. As to the method:
Primary hepatocytes or AML-12 cells are lysed and total protein concentration is determined using the Bradford assay. SOD2 activity is determined at indicated times after treatment with a compound of Formula (I), Formula (Ia), Formula (Ib), Formula (II), or Formula (III), or a pharmaceutically acceptable salt thereof, using a SOD Assay Kit. Absorbance is determined and results are expressed in U/ml/mg of protein according to the standard curve and measured protein concentration.
Primary hepatocytes were prepared from 8-12-week-old C57BL/6J mice by collagenase perfusion method. Mouse livers were perfused with Hank's balanced salt solution (HBSS, KCl, 5.4 mM; KH2PO4, 0.45 mM; NaCl, 138 mM; NaHCO3, 4.2 mM; Na2HPO4, 0.34 mM; glucose, 5.5 mM; […]; EGTA, 50 mM; CaCl2, 50 mM; pH 7.4). Livers were then washed at a rate of 5 ml/min through the portal vein. After washing, livers were perfused with collagenase (0.025%) solution. Cell viability was assessed by the trypan blue method. Isolated primary hepatocytes were plated with DMEM medium (Gibco) including 10% FCS, 10 units per ml penicillin and HEPES for buffering. The cells were maintained in culture at 37° C. in a humidified atmosphere of 5% CO2/95% air. After 6-8 hrs of attachment, this medium was replaced with media containing different concentrations of an ACMSD inhibitor (i.e., Compound 1 or Compound 17) or with the corresponding concentration of DMSO (as a control). Primary hepatocytes were harvested about 24 hrs later if not indicated differently.
Primary hepatocytes or AML-12 cells were then lysed in a 20 mM HEPES buffer (Gibco), pH 7.2, containing 1 mM EGTA (Sigma), 210 mM mannitol (Sigma), and 70 mM sucrose (AMRESCO). Total protein concentration was determined using the Bradford assay (BioRad). SOD-2 activity was determined at indicated times after ACMSD inhibitor treatment by the SOD Assay Kit (Cayman Chemical) according to the manufacturer's instructions. In order to specifically detect the SOD2 activity 2 mM potassium cyanide was added to the assay, which inhibited both Cu/Zn-SOD and extracellular SOD, resulting in the detection of only Mn-SOD (SOD-2) activity. Absorbance was determined with a Victor X4 multi-label plate reader (Perkin-Elmer) at 450 nm. Results are expressed in U/ml/mg of protein according to the standard curve and measured protein concentration.

In series [4] the test system is murine primary hepatocytes. In words: NAD+ content in murine primary hepatocytes (HPLC, mass-spectrometry). It counts as cell-based, mouse. Particulars: 24 hours.
The test system of series [5] is SIRT1-regulated genes (Pgc1a, Sod1, Sod2). Briefly: RT-qPCR analysis of SIRT1-regulated genes in primary murine hepatocytes. It counts as cell-based. Particulars: primary mouse hepatocytes; 24 hrs; 5 nM-500 nM range. As to the method: Cells (AML-12, Hepa-1.6, HEK-293, primary human and murine hepatocytes) are treated with different concentrations of a compound of Formula (I), Formula (Ia), Formula (Ib), Formula (II), or Formula (III), or a pharmaceutically acceptable salt thereof and the gene expression of ACMSD, Pgc1a, Sod1, and Sod2 (MnSOD) is determined using RT-qPCR. Total RNA is extracted from cells and the extracted RNA is treated with DNase and used for reverse transcription (RT).
Gene expression of ACMSD and genes known to be regulated by SIRT1, (an enzyme that is strictly NAD^+ dependent) such as Pgc1a, Sod1, Sod2 (MnSOD), were analysed in AML-12 cells, Hepa-1.6 cells and primary murine hepatocytes treated with Compound 1 or 17.
Cells (AML-12, Hepa-1.6, HEK-293, primary human and murine hepatocytes) were treated with different concentrations of Compound 1 or Compound 17. Total RNA was extracted from cells using TRIzol (Invitrogen) according to the manufacturer's instructions. The RNA was treated with DNase, and 2 μg of RNA was used for reverse transcription (RT). 50× diluted cDNA was used for RT-quantitative PCR (RT-qPCR) reactions. The RT-qPCR reactions were performed using the Light-Cycler system (Roche Applied Science) and a qPCR Supermix (QIAGEN) with the indicated primers. The average of at least three technical repeats was used for each biological data point.
In general terms: Real-time PCR tracks product formation cycle by cycle.

The next series concerns FoxO1. Briefly: FoxO1 phosphorylation levels in AML-12 cells (western blot). Particulars: 24 hours, FIG. 6. It counts as cell-based, mouse. As to the method:
AML-12 cells are treated with different concentrations of a compound of Formula (I), Formula (Ia), Formula (Ib), Formula (II), or Formula (III), or a pharmaceutically acceptable salt thereof. Cells are then lysed, and analyzed by SDS-PAGE/western blot. Blocking and antibody incubations are then done and each protein present is detected with its specific antibody.
AML-12 cells were treated with different concentrations of Compound 1 or Compound 17 for 24 hours. Cells were then lysed in lysis buffer (50 mM Tris, 150 mM KCl, EDTA 1 mM, NP40 1%) containing protease and phosphatase inhibitors, and analyzed by SDS-PAGE/western blot. Blocking and antibody incubations were done in 5% milk. Each protein present was detected with its specific antibody. Tubulin antibody was obtained from Sigma Inc, FoxO1 and phopho-FoxO1 (Ser256) antibodies were obtained from Cell Signaling. Antibody detection reactions were developed by enhanced chemiluminescence (Advansta, Calif., USA) using x-ray films.

Another series has as its target hACMSD (ACMSD1) (Homo sapiens (Human), UniProt Q8TDX5). Briefly: Determination of ACMSD1 inhibition, spectrophotometrical in vitro assay. Type of series: biochemical. Particulars: 500 μM. Here is the method:
The activity of compounds as inhibitors of ACMSD1 is determined in a spectrophotometrical in vitro assay. The pre-assay mixture is incubated and a compound of Formula (I), Formula (Ia), Formula (Ib), Formula (II), or Formula (III), or a pharmaceutically acceptable salt thereof, and ACMSD1 solution is then added. The effect of ACMS concentration on the enzyme activity is investigated by varying 3-hydroxyanthranilic acid (3OH-HA) concentration in the pre-assay mixture. Kinetic parameters are calculated from the initial velocity data using a Lineweaver-Burk plot.
The activity of compounds 1-19 and 21-23 as inhibitors of ACMSD1 was determined by measuring the conversion of 30H-Anthranilic Acid into product (i.e., ACMS) in a spectrophotometrical in vitro assay.
The pre-assay mixture consisting of 3-hydroxyanthranilic acid (3OH-HA), 3-hydroxyanthranilic acid, 3,4-diOxygenase (HAO), and a dialyzed crude extract of E. coli BL21 (DE3) cells expressing the recombinant enzyme, was incubated at 25° C. with monitoring of the increase in absorbance at 360 nm due to the formation of ACMS from 3OH-HA. After the reaction was completed within ˜2 mins, an aliquot of ACMSD1 solution (prepared and purified from Pichia Pastoris overexpressing the recombinant enzyme) was added, and the decrease in absorbance at 360 nm was followed at 15 second intervals. […]

Entries after “also recorded” stand apart in the source; their conditions may differ. Some results are limits rather than exact numbers.

hACMSD (ACMSD1), sequence (Q8TDX5 whole entry): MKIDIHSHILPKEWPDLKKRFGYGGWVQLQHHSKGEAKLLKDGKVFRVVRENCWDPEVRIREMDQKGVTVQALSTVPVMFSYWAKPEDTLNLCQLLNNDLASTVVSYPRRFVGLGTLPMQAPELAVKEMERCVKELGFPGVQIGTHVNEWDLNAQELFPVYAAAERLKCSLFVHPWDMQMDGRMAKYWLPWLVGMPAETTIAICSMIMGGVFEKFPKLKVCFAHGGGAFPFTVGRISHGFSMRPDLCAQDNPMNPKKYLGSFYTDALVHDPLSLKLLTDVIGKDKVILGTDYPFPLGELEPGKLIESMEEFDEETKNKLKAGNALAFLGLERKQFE

For `N#Cc1c(-c2cccs2)nc(SCc2cccc(C(=O)O)c2)[nH]c1=O` [Compound 4], in series [1], the “ACMSD-1 inhibition (NAD+ concentration/content)” value is “inhibits ACMSD-1 enzyme at concentrations as low as 0.5 μM and 5 μM”. In addition, the “Cytotoxicity Hep-G2” value in the series with HePG2 cells is given as “Not Toxic”. Further, in the series on AML-12 cells, the “Cytotoxicity AML-12” value is recorded as “Not Toxic”. Also, the hERG entry at hERG potassium channel is recorded as “No Activity”.

For `N#Cc1c(-c2cccs2)nc(SCc2cccc(-c3nn[nH]n3)c2)[nH]c1=O` [Compound 17], in the series with SOD2 [2], the SOD2 activity entry is given as “induced in a dose-dependent manner”. Also, in the series with SOD2 [3] (primary hepatocytes), the “dose at which effects on SOD2 activity were observed” value is “about 5 nM” and the “dose at which the effect on SOD2 activity reached a maximum” value was “about 50 nM”. Also, the SOD2 activity entry in the series with SOD2 [3] (primary murine hepatocytes, 24 hours) was “induced in a dose-dependent manner”. Also, the “Cytotoxicity Hep-G2” value in the series with HePG2 cells is recorded as “Not Toxic”. The “intra-cellular NAD+ levels” value in series [4] (5 nM, 10 nM and 50 nM, FIG. 2) is “increase in NAD^+ levels; also recorded: significant and dose-dependent increase”. Further, the “concentration with significant effect on NAD+ levels” value in series [4] is given as at most 5 nM. In addition, in series [5], the “Pgc1a mRNA expression levels” value was “dose-dependent increase” and the “Sod2 (MnSOD) mRNA expression levels” value is on record as “dose-dependent increase”. Further, in the series with AML-12 cells, the “Cytotoxicity AML-12” value was “Not Toxic”. Besides, on hERG potassium channel, the hERG result is given as “No Activity”. Besides, the “FoxO1 phosphorylation at Ser256” value in the series with FoxO1 is reported as “decrease in FoxO1 phosphorylation at Ser256 with increasing dose”.

On to `CCCCC(CC)COC(=O)c1ccccc1C(=O)O` (centres unmarked) [MEHP, mono-(2-ethylhexyl)phthalate], for which the “inhibition of purified ACMSD-1 enzyme” value against hACMSD (ACMSD1) came to 70%.
